Experiment [1] has as its system IL-1β induced IL-6 secretion by human primary astrocytes. The experiment in a line: IL-1β induced IL-6 secretion by human primary astrocytes (ELISA). Type of experiment: cell-based. The note with it: IL-1β 10 U/ml, 6 hours, inhibitor 1250, 2500 or 5000 nM. From the text:
IL-1β has been implicated in both the initiation and propagation of neuroinflammatory changes seen in Alzheimer's disease patients. One of the main mechanisms of IL-1β is the induction of interleukin 6 (IL-6) secretion, which propagates the neuroinflammatory response in Alzheimer's disease patients. Using primary human adult astrocytes this inflammatory response as well as modulators (i.e. potential drugs for therapy) can be studied in vitro. […] In the presence of IL-1β (10 U/ml) these cells secrete IL-6 in the culture supernatant, which can be measured by ELISA. […] Cells were incubated with or without IL-1β (10 U/ml) for 6 hours in the presence of different concentration of IRAK1/4 inhibitor I (1250, 2500, or 5000 nM). IL-6 levels (pg/ml) in the culture supernatants were determined by ELISA. Shown are mean levels +/− S.D. of three replicate stimulations.
On the technique in general: An ELISA detects its analyte on a solid surface through an enzyme-linked reagent.

In experiment [2] the test system is IL-1β induced IL-6 secretion by U373 astrocytoma cells. The experiment in a line: IL-1β induced IL-6 secretion by U373 astrocytoma cells (ELISA). The experiment is classed as cell-based. Conditions: IL-1β 10 U/ml, 6 hours, inhibitor 1250, 2500 or 5000 nM.

Regarding `O=C(Nc1nc2ccccc2n1CCN1CCOCC1)c1cccc([N+](=O)[O-])c1` [IRAK1/4 inhibitor I], the “IL-6 secretion in culture supernatant” value in experiment [1] is recorded as “dose-dependently inhibits IL-6 secretion”; in experiment [1] (listed as IRAK1/4 inhibitor), “reduced”; in experiment [2], “dose-dependently inhibits IL-6 secretion”; in experiment [2] (listed as IRAK1/4 inhibitor), “reduced”.

Values taken from patent US20110071052A1, “MEASUREMENT OF PROTEIN KINASE ACTIVITY IN CEREBROSPINAL FLUID FOR DIAGNOSIS OF NEUROLOGICAL AND PSYCHIATRIC DISORDERS” (priority 2008, published 2011).
